Counter-ions that a name gives are not always drawn.
Tested on: wrinkles of the outer corners of the eyes
Assay: Test of wrinkle improvement effect (skin replica shadow image analysis after 8 weeks of application)
Assay type: in vivo, women
Conditions: for Wrinkle improvement Improvement rate (%): applied to outer corners of the eyes twice a day for 8 weeks; for Wrinkle improvement Evaluation: twice a day for 8 weeks, class of the improvement rate
Description: The cosmetics (Examples 1-7, Comparative Example, and Reference Examples) according to Table 1 were prepared respectively in a conventional manner. With regard to each of the prepared cosmetics, the wrinkle improvement effect was evaluated by the following method. In other words, 45 women (40 to 60 years old) who were concerned about wrinkles of the outer corners of the eyes were divided into 9 groups of 5 persons. To each group, any one of the cosmetics of Examples 1 to 7, Comparative Example, and Reference Examples was handed over, which was applied by them to the outer corners of the eyes twice a day in the morning and evening continuously for 8 weeks. Before and after the test, an impression of the skin surface profile was taken in a conventional manner to produce the respective replicas. As the base material for the replica, that for a white replica not transmitting light was used. […] The distribution of brightness in the shadow image was determined, and the brightness equal to or higher than the median value of the brightness was transformed to the maximum brightness, and the brightness below the median value was transformed to the brightness 0 so that binarization is performed according to the borderline of the median value of the brightness. Then the area rate of the shadow portion (portion with the brightness 0) was measured and the wrinkle improvement rate was calculated based on the following expression. Wrinkle improvement rate (%)=(Area rate of shadow portion before test−Area rate of shadow portion after test)/(Area rate of shadow portion before test)×100

[1] = cosmetic of Table 1 with 0.01% by mass compound (Examples 3 and 5), average of group of 5 women
[2] = cosmetic of Table 1 with 0.01% by mass compound (Examples 3 and 5)
[3] = cosmetic of Table 1 with 1% by mass compound, average of group of 5 women (40 to 60 years old)
[4] = cosmetic of Table 1 with 1% by mass compound

Compound	Wrinkle improvement Improvement rate (%) [1] [%]	Wrinkle improvement Evaluation [2]	Wrinkle improvement Improvement rate (%) [3] [%]	Wrinkle improvement Evaluation [4]
NCC1CCC(C(=O)c2ccc(CCC(=O)O)cc2)CC1 (centres unmarked) [Compound 1, 3-[p-(4-aminomethylcyclohexylcarbonyl)phenyl]propionic acid]	6.3	A (5% or more and less than 10%)	12	AA (The improvement rate is 10% or more)
CCCCCC(=O)OCC(C)Cc1ccc(C(=O)C2CCC(CN)CC2)cc1 (centres unmarked) [Compound 5, 2-methyl-3-[p-(4-aminomethylcyclohexylcarbonyl)phenyl]propyl hexanoate]	–	–	6.5	A (5% or more and less than 10%)
NCC1CCC(C(=O)c2ccc(CCCO)cc2)CC1 (centres unmarked) [Compound 3, 3-[p-(4-aminomethylcyclohexylcarbonyl)phenyl]propanol]	5.6	A (5% or more and less than 10%)	9.3	A (5% or more and less than 10%)
NC[C@H]1CC[C@H](C(=O)O)CC1 [Tranexamic acid, reference compound]	–	–	3.2	B (less than 5%)
CCCCCC(=O)OCCCc1ccc(C(=O)C2CCC(CN)CC2)cc1 (centres unmarked) [Compound 4, 3-[p-(4-aminomethylcyclohexylcarbonyl)phenyl]propyl hexanoate]	–	–	8.3	A (5% or more and less than 10%)
CNC(=O)[C@H]1CC[C@H](CN)CC1.Cl [Tranexamic acid methylamide hydrochloride, reference compound]	–	–	3.6	B (less than 5%)
CCCCCCOC(=O)CCc1ccc(C(=O)C2CCC(CN)CC2)cc1 (centres unmarked) [Compound 2, hexyl 3-[p-(4-aminomethylcyclohexylcarbonyl)phenyl]propionate]	–	–	8.2	A (5% or more and less than 10%)
NCC1CCC(C(=O)c2ccc(CCC(=O)O)cc2)CC1 (centres unmarked) [Hydrochloride salt of Compound 1, 3-[p-(4-aminomethylcyclohexylcarbonyl)phenyl]propionic acid]	–	–	12.2	AA (The improvement rate is 10% or more)

Reference: US10835466B2, “Wrinkle ameliorating agent” (POLA CHEMICAL INDUSTRIES, INC., priority 2016, dated 2020)
